Experimental data published in US20230116399A1, “Tumor Homing Statin Derivatives” (Da Zen Theranostics, Inc., priority 2019, published 2023).

Legend:
A549 (LC) = assay: MTT cell viability, A549; assay type: cell-based, human; conditions: 48 h / 24 hours, relative IC50
Protocol: (§1) Cell culture: In the following examples, unless otherwise specified, all cell lines are purchased from American Type Culture Collection and cultured in American Type Culture Collection (ATCC)-recommended media, with fetal bovine serum (FBS) to a final concentration of 10% and 1×penicillin/streptomycin at 37° C. with 5% CO2 in a cell culture incubator, unless otherwise specified. Unless otherwise specified, culture is 2D. Where culture is 3D, low attachment plates are used, with the same media. C4-2B (parental cell line and drug-resistant cells derived therefrom) are cultured in RPMI-1640 with 10% FBS. MDVR cells (an Enzalutamide-resistant variety of C4-2B prostate cancer cells formed as described in Example 4 below) are cultured as indicated for the parental C4-2B cells. 22RV1 Prostate Cancer (PC) cells (ATCC® CRL-2505™, a human prostate carcinoma cell line of epithelial morphology) are cultured in RPMI-1640 with 10% FBS. A549 cells (ATCC® CCL-185™, a human lung carcinoma cell line of epithelial morphology) are cultured in F-12K medium with 10% FBS. A549/DDP cells (Cells were described in DOI: 10.3892/mmr.2014.2163 and in doi: 10.7150/jca.19426; cisplatin resistant cells may be established from exposing parental A549 cells to cisplatin for an extended time). MDR A549/cisplatin lung adenocarcinoma cell line, drug resistant) are cultured in F-12K medium with 10% FBS. H1975 cells (ATCC® CRL-5908™, a human adenocarcinoma non-small cell lung cancer cell line of epithelial morphology) are cultured in RPMI-1640 medium with 10% FBS; H1975 cells are a cell model for human lung cancer that is resistant to Gefitinib (an EGFR inhibitor drug used for treatment of certain breast, lung and other cancers). H1650 cells (ATCC® CRL-5883™, a adenocarcinoma/bronchoalveolar carcinoma lung cancer cell line of epithelial morphology) are cultured in RPMI-1640 medium with 10% FBS. […]

A549DDP (LC) = assay: MTT cell viability, A549DDP; assay type: cell-based, human; conditions: 48 h / 24 hours, relative IC50
Protocol: as §1
[…] For each cell line, the IC50 is determined for each drug, i.e. the ELSD, the ALSD, and for the corresponding unconjugated statin (Simvastatin), in concentrations from 0.1-100 μM. […]

H1975 (LC) = assay: MTT cell viability, H1975; assay type: cell-based, human; conditions: relative IC50
Protocol: as §1

H1650 (LC) = assay: MTT cell viability, H1650; assay type: cell-based, human; conditions: relative IC50
Protocol: as §1

PC9 (LC) = assay: MTT cell viability, PC9; assay type: cell-based, human; conditions: 48 h / 24 hours, relative IC50
Protocol: as §1

H446 (LC) = assay: MTT cell viability, H446; assay type: cell-based, human; conditions: relative IC50
Protocol: as §1

[1] = tested on: H446 human small cell lung cancer (SCLC) cells; assay: Mouse xenograft model, H446 SCLC; assay type: in vivo, mice; conditions: 2.8 mg/kg, twice a week via i.p. injection, 52 days
Protocol: Example 10: THSD (ALSD and ELSD, respectively) are tested in vivo in a mouse xenograft model for human lung cancer. The example is essentially performed as described for example 9 with the following modifications: human SCLC H446 cancer cells are used, and the tested agents include two statin conjugates (compounds of formula FId/compound 14 or “DZ2b” and FIId/compound 7 or “DZ2a”, respectively, designated “DZ-SIM-Ester” or “DZ-SIM-Amide” in FIG. 10), and a non-statin conjugate (“DZ-DHA”). SCLC H446 cells (1.5×10^6) are subcutaneously implanted on the bilateral flanks of athymic nude mice at age of 5 weeks. 10 days post cell implantation, mice are treated with DZ1 (2.8 mg/kg), SIM (2 mg/kg), DZ1-SIM-Amide/compound 7 or DZ1-SIM-Ester/compound 14 (4 mg/kg), and DZ1-DHA (4 mg/kg, DZ1-dihydroartemisinin ester “DZ1-DHA”, as shown in FIG. 11), twice a week via i.p. injection. (A) Tumor sizes are measured by caliper every four days during the treatment period of 52 days, and volumes are calculated using formula […] as described in example 9 above. Confidence levels are indicated as *P<0.05, **P<0.01, ***P<0.0005.

EZ-resistant C4-2B (PC) = assay: MTT cell viability, EZ-resistant C4-2B (MDVR); assay type: cell-based; conditions: Homo sapiens, 48 h / 24 hours, relative IC50
Protocol: as §1, with “FBS.” for “FBS. H1975 cells (ATCC® CRL-5908™, a human adenocarcinoma non-small cell lung cancer cell line of epithelial morphology) are cultured in RPMI-1640 medium with 10% FBS; H1975 cells are a cell model for human lung cancer that is resistant to Gefitinib (an EGFR inhibitor drug used for treatment of certain breast, lung and other cancers). H1650 cells (ATCC® CRL-5883™, a adenocarcinoma/bronchoalveolar carcinoma lung cancer cell line of epithelial morphology) are cultured in RPMI-1640 medium with 10% FBS.”

IC50 (A549 (LC)) [µM]	IC50 (A549DDP (LC)) [µM]	IC50 (H1975 (LC); 48 h / 24 hours) [µM]	IC50 (H1650 (LC); 48 h / 24 hours) [µM]	IC50 (PC9 (LC)) [µM]	IC50 (H446 (LC); 48 h / 24 hours) [µM]	IC50 (A549 (LC); Homo sapiens) [µM]	IC50 (A549DDP (LC); Homo sapiens, A549/DDP) [µM]	IC50 (H1975 (LC); Homo sapiens, NCI-H1975, 48 h / 24 hours) [µM]	IC50 (H1650 (LC); Homo sapiens, NCI-H1650, 48 h / 24 hours) [µM]	IC50 (PC9 (LC); Homo sapiens) [µM]	IC50 (H446 (LC); Homo sapiens, NCI-H446, 48 h / 24 hours) [µM]	SMILES	mean tumor volume / growth inhibition [1]	IC50 (EZ-resistant C4-2B (PC)) [µM]
> 50	> 50	> 50	> 50	> 50	> 50							CC1(C)C(/C=C/C2=C(Cl)C(=C/C=C3/N(CCCCCC(=O)O)c4ccccc4C3(C)C)/CCC2)=[N+](CCCCS(=O)(=O)[O-])c2ccccc21 [DZ1]	steep increase in tumor volume	
						> 50	30	> 50	33.3	33	39	CCC(C)(C)C(=O)O[C@H]1C[C@@H](C)C=C2C=C[C@H](C)[C@H](CC[C@@H]3C[C@@H](O)CC(=O)O3)[C@H]21 [Simvastatin]		25.5
